Laboratory results: patent US5364615A (priority 1992, dated 1994)
Where “and” joins values, the source holds several entries; their conditions need not be identical. Equal values may be shown once. Entries after “also recorded” stand apart in the source; their conditions may differ. Read-outs that look alike come from different tables or passages of the source.

How the values were obtained:
[1] = system: Pneumocystis carinii; assay: Randomized clinical trial of PCP prophylaxis (Example 8); format: in vivo, human; conditions: for PCP (participants) / No PCP (participants) / Relative Hazard of PCP: Cox regression: prior PCP strata, intention to treat; for PCP (participants) / No PCP (participants): all PCP
[2] = Adverse reactions and toxicity during PCP therapy (Example 3); conditions: for FEV1/FVC ratio: mean±1 SD
[3] = inhaled pentamidine; cited from earlier work
[4] = in vivo
[5] = Side effects (Example 6); format: in vivo, human
[6] = system: Pneumocystis carinii; assay: Treatment of Pneumocystis carinii pneumonia, inhaled vs intravenous pentamidine (Example 1); format: in vivo, human
[7] = Delivery efficiency, nebulizer retention and lung half-life of aerosolized pentamidine; design: species or system human
Text: As indicated above, Pneumocystis carinii infect the alveoli. […] It should also be understood that the amount of pentamidine deposited in the alveoli may be substantially less than the total amount aerosolized since a large portion is exhaled by the patient or is trapped on the interior surfaces of the nebulizer apparatus. […] This is true regardless of the dose size, duration of inhalation, and type of nebulizer used, Respirgard or Ultravent. […] Furthermore, even with minimization of airway deposition, there is a portion which is still deposited in the patient's airways.
The "amount nebulized" or "amount aerosolized" of the drug means the amount that actually leaves the apparatus as an aerosol, i.e., the amount placed into the apparatus less the amount retained in the reservoir and on the inner surfaces of the apparatus at the conclusion of a treatment session. "[…] of pentamidine delivered to the alveoli" refers to the amount of drug that is estimated to actually reach the alveoli.

[8] = Pentamidine concentrations in lavage fluid and plasma, HPLC (Example 1); format: in vivo, human
Experimental: For six inhalation patients (1, 4, 6, 7, 15, and 16) and five i.v. patients (2, 3, 5, 8, and 22), plasma samples were obtained at the completion of therapy and at 0.17, 0.5, 1, 1.5, 2, 2.5, 3, 4, 5, 6, 8, 10, 12, and 18 hours following initiation of therapy. For patients 9-14 and 17-21, trough and peak plasma samples were collected for the first three days, then weekly during therapy. Trough and peak samples were obtained on days 2, 3, 4, 5, 7, 11, and 13 for patient 2, days 2, 3, 4, 5, 7, and 12 for patient 3, days 2, 3, 4, 5, 13 and 18 for patient 5, and days 2, 3, 4, 5, and 11 for patient 8.

[9] = in vivo; remark: listed apart in the source
[10] = group b, 150 mg every two weeks
[11] = group c, 300 mg every four weeks

N=C(N)c1ccc(OCCCCCOc2ccc(C(=N)N)cc2)cc1 [pentamidine, p,p'-(pentamethylenedioxy)dibenzamidine]
PCP (participants) ([1]; 30 mg): 33
No PCP (participants) ([1]; 150 mg): 54
PCP (participants) ([1]; 150 mg): 24
No PCP (participants) ([1]; 300 mg, p .02 (30 vs 300 mg)): 59
PCP (participants) ([1]; 300 mg, p .02 (30 vs 300 mg)): 21
Relative Hazard of PCP: Cox regression ([1]; 30 vs 300): 2.11
Relative Hazard of PCP: Cox regression ([1]; 30 vs. 150): 1.40
all cause mortality ([1]; prior PCP stratum): 53%
hazard of PCP by start of therapy ([1]; start within 3 months of prior PCP vs later, Cox model): less than half the hazard of PCP
time to PCP relapse, median ([1]; starting prophylaxis within 3 months of prior PCP): 240 days
time to PCP relapse, median ([1]; starting with a longer interval since prior episode): 143 days
FEV1/FVC ratio ([2]; end of therapy): 79.9±15.8%
FEV1/FVC ratio, single treatment ([2]; first 4 patients): no different before and after a single treatment
bronchospasm / airway obstruction ([2]; in vivo): Neither clinical nor spirometric evidence of airway obstruction occurred; also recorded: Clinical bronchospasm was not seen
FEV1/FVC ratio ([2]; initial testing): 76.1±12.2%
Toxicity Req Change of Therapy, % ([2]; n = 15): 0%
microscopic airway changes [3]: no microscopic airway changes have been noted
hypotension or dysglycemia [4]: no episodes of hypotension or dysglycemia
inhalation-associated cough [4]: Eight of thirteen patients (four of whom also experienced bronchospasm) had mild inhalation-associated cough
reversible bronchospasm [4]: occurred in five patients
withdrawals due to toxicity ([5]; all groups): no withdrawals due to toxicity
Cough ([5]; group a, 30 mg every two weeks): 25%
Metallic Taste ([5]; group a, 30 mg every two weeks): 11%
Wheezing ([5]; group a, 30 mg every two weeks): 10%
Cough [5, 10]: 34%
Metallic Taste [5, 10]: 16%
Wheezing [5, 10]: 14%
Cough [5, 11]: 34%
Metallic Taste [5, 11]: 20%
Wheezing [5, 11]: 14%
Outcome of therapy ([6]; inhalation 4 mg/Kg, UltraVent, per patient): failed; also recorded: success
satisfactory response rate ([6]; inhalation therapy, evaluable patients): 90%
treatment failures ([6]; inhalation, 4 of 13 patients): 31%
responded satisfactorily ([6]; inhalation, 9 of 13 patients): 69%
Time to discharge ([6]; inhalation, all patients in group, based on 9 successful patients): 15 ± 1 days
satisfactory outcome (patients) ([6]; inhalation, of ten evaluated patients): nine had a satisfactory outcome
died in the hospital ([6]; inhalation, one patient): 7.7%
Time to discharge ([6]; inhalation, per patient (patient 9 died on day 9)): 27 days and 17 days and 16 days and 15 days and 14 days and 13 days
satisfactory outcome (patients) ([6]; intravenous): Eight of nine iv-treated patients exhibited a satisfactory outcome
Outcome of therapy ([6]; intravenous 3 mg/Kg, per patient, 3 mg/kg): success; also recorded: failed
Time to discharge ([6]; intravenous, based on 8 successful patients): 14 ± 2 days
responded satisfactorily ([6]; intravenous, eight of nine): 89%
relapse ([6]; intravenous, four patients followed five to six months): no reported relapses
Time to discharge ([6]; intravenous, per patient): 14 days and 12 days and 18 days and 13 days and 16 days
amount delivered to the alveoli ([7]; 300 mg placed in nebulizer, estimate): about 21 mg
absorbed dose ([7]; 600 mg in 6 mL, Respirgard II, 3-4 mL nebulized, estimate): 45 to 60 mg
amount delivered to the alveoli ([7]; 600 mg placed in nebulizer, estimate): about 42 mg
dose remaining in the nebulizer after inhalation ([7]; Respirgard or UltraVent, regardless of dose): approximately one third of the pentamidine dose that is placed into the nebulizer remains in the nebulizer
fraction of total dose delivered to the alveoli ([7]; estimate based on Mallinckrodt technical specifications): about 7%
half-life ([7]; human, lung, inhaled or intranasal, read-out: halflife in the lungs): 21 to 42 days
efficiency of delivery by inhalation ([7]; to alveoli, estimate): 7-10%
concentration at 288 h ([8]; human, bronchoalveolar lavage fluid, inhaled or intranasal, inhalation, patient 4, day 12, read-out: mean concentration in repeat lavage): 178 ± 28 ng/mL
concentration at 1656 h ([8]; human, bronchoalveolar lavage fluid, inhaled or intranasal, inhalation, patient 4, day 69 following completion of therapy, read-out: mean concentration in repeat lavage): 5.61 ± 0.78 ng/mL
concentration at 360 h ([8]; human, bronchoalveolar lavage fluid, inhaled or intranasal, inhalation, patient 6, day 15, read-out: mean concentration in repeat lavage): 63 ± 22 ng/mL
concentration at 360 h ([8]; human, bronchoalveolar lavage fluid, inhaled or intranasal, inhalation, patient 12, day 15, read-out: mean concentration in repeat lavage): 45.7 ± 0.9 ng/mL
concentration at 1128 h ([8]; human, bronchoalveolar lavage fluid, inhaled or intranasal, inhalation, patient 14, day 47, read-out: mean concentration in repeat lavage): 3 ± 0.5 ng/mL
concentration at 48 h ([8]; human, bronchoalveolar lavage fluid, iv, patient 2, day 2): 10.9 ± 2.9 ng/mL
concentration at 144 h ([8]; human, bronchoalveolar lavage fluid, iv, patient 5, day 6): 3.4 ± 0.2 ng/mL
Cmax ([8]; human, plasma, iv, read-out: maximum plasma concentration during remainder of therapy, mean): 497 ± 451 ng/mL
plasma samples without detectable drug ([8]; inhalation): approximately two-thirds of the plasma samples contained no detectable drug
lavage fluid concentration, inhalation vs iv ([8]; inhalation patients higher than iv-treated): approximately 10 fold
Plasma max during treatment ([8]; inhalation, highest concentration during remainder of therapy, per patient): 6.1 ng/mL and 21.8 ng/mL and 7.8 ng/mL and 5.0 ng/mL and 13.0 ng/mL and 45.4 ng/mL and 12.3 ng/mL and 6.9 ng/mL and 29.5 ng/mL and 11.5 ng/mL and 79.2 ng/mL and 23.2 ng/mL
Mean concentration in lavage fluid ([8]; inhalation, mean ± SD in (N) consecutive lavages, per patient): 55.3 ± 17.1 ng/mL and 28.6 ± 10 ng/mL and 66.8 ± 16 ng/mL and 30.6 ± 27.5 ng/mL and 16.8 ± 7.3 ng/mL and 49.1 ± 22.5 ng/mL and 149.7 ± 87.2 ng/mL and 92.4 ± 53.9 ng/mL
Plasma conc. on Day 1 ([8]; inhalation, peak during inhalation (patients 1, 4, 6, 7, 15, 16) or at end of inhalation (10-14, 17)): 0.0 ng/mL
Time to max conc. ([8]; inhalation, plasma, per patient): 5 days and 2 days and 1 days and 3 days and 14 days and 8 days
mean plasma concentration ([8]; intravenous, at completion of first infusion): 179 ± 185 ng/mL
adverse systemic reactions (renal, liver, hematologic, hypoglycemia, hypotension) [9]: No adverse systemic reactions
coughing with larger particles [9]: most subjects began coughing within a few breaths
